{"source": "patent US20220313600A1", "about": "“FORMULATIONS OF PSMA IMAGING AGENTS” (Clarity Pharmaceuticals Limited, priority 2019, published 2022)", "key": {"[1]": {"test": "Degradation of the compound of Formula (I) when the radiolabelling mixture is mixed at raised temperature", "assay_type": "physicochemical", "details": "temperatures higher than about 40° C., for example 60° C.; mixture with Cu radioisotope and acetate buffer", "description": "The solution comprising the mixture of the Cu radioisotope, the compound of Formula (I) and the acetate buffer is then allowed to mix for a time and at a particular temperature in order to allow for complexation of the compound of Formula (I) with the Cu radioisotope. The solution may be mixed using an appropriate apparatus. For example, given the small volumes used, an Eppendorf tube may be an appropriate vessel, such that an Eppendorf Thermomixer may be used to both mix and if required, heat the solution. In an embodiment, the solution is mixed at room temperature. In an embodiment, the solution is mixed at about 40° C. […] While a lower temperature of about 21° C., i.e. room temperature, may be used for mixing, the complexation reaction may not be complete at 5 minutes but is completed by about 15 minutes. […] In an embodiment, the solution is mixed at about 40° C. for about 5 minutes. In an embodiment, the solution is mixed at about 40° C. for about 10 minutes. In another embodiment, the solution is mixed at about 40° C. for about 15 minutes. In another embodiment, the solution is mixed at about 21° C. for about 10 minutes. In another embodiment, the solution is mixed at about 21° C. for about 15 minutes."}, "[2]": {"test": "Stability of the compound of Formula (I) formulated as an aqueous solution", "assay_type": "physicochemical", "description": "One approach to overcome the observed instability may be to add one or more components that are antioxidants and/or stabilizing agents to the formulation, however the inclusion of further components to a formulation introduces potential reactivity issues between the compound of Formula (I) and these added components. For instance, the addition of an antioxidant may in fact react with the compound of Formula (I) thus potentially changing the structure and function of the compound, which is undesirable."}}, "data": [{"smiles": "O=C(O)CCC(NC(=O)NC(CCCCNC(=O)CCCCCCCNC(=O)C(Cc1ccccc1)NC(=O)C(Cc1ccccc1)NC(=O)CCCC(=O)NC12CNCCNCC(NC(=O)CCCC(=O)NC(Cc3ccccc3)C(=O)NC(Cc3ccccc3)C(=O)NCCCCCCCC(=O)NCCCCC(NC(=O)NC(CCC(=O)O)C(=O)O)C(=O)O)(CNCCNC1)CNCCNC2)C(=O)O)C(=O)O", "note": "(stereo not drawn) [Formula (I), Sar-bisPSMA]", "values": [{"measurement": "degradation of the compound on heating", "setting": "[1]", "result": "some degradation"}, {"measurement": "stability of the compound in aqueous solution", "setting": "[2]; formulated as an aqueous solution, no buffer or stabilizing agent", "result": "relatively unstable and prone to oxidation and degradation"}, {"measurement": "stability of the compound in a formulation containing a buffer", "setting": "[2]; formulation containing a buffer, in the absence of a stabilizing agent", "result": "requisite stability"}]}]}
